The results in this text go back to ChEMBL document CHEMBL1132048, “Optimisation of the P2 pharmacophore in a series of thrombin inhibitors: ion-dipole interactions with lysine 60G” (Bioorg Med Chem Lett, 1999).

The target in the first data set is Prothrombin (Homo sapiens, UniProt P00734). Kind of data set: Inhibition of human thrombin (in vitro).
For `CNC(=O)NCCC1CCN(C(=O)[C@H](Cc2nc3ccccc3s2)NS(=O)(=O)c2cccc3c2NCC(C)(C)C3)CC1`, the inhibition constant (Ki) (in general, a dissociation constant, usually derived from enzyme kinetics or from competition with a known ligand) was found to be 24 nM. `CCNC(=O)NCCC1CCN(C(=O)[C@H](Cc2nc3ccccc3s2)NS(=O)(=O)c2cccc3c2NCC(C)(C)C3)CC1` showed a Ki of 65 nM. In turn, `CC1(C)CNc2c(cccc2S(=O)(=O)N[C@@H](Cc2nc3ccccc3s2)C(=O)N2CCC(CCO)CC2)C1` returned a Ki of 79 nM. Molecule `CC1(C)CNc2c(cccc2S(=O)(=O)N[C@@H](Cc2nc3ccccc3s2)C(=O)N2CCC(CCF)CC2)C1` had an inhibition constant (Ki) of 26 nM.

`CC(=O)NCCC1CCN(C(=O)[C@H](Cc2nc3ccccc3s2)NS(=O)(=O)c2cccc3c2NCC(C)(C)C3)CC1` displayed a Ki of 654 nM. This Ki lies about 25-fold higher than the previous one. As for `CN(C)C(=O)NCCC1CCN(C(=O)[C@H](Cc2nc3ccccc3s2)NS(=O)(=O)c2cccc3c2NCC(C)(C)C3)CC1`, the Ki came out at 1000 nM. The molecule `COC(=O)NCCC1CCN(C(=O)[C@H](Cc2nc3ccccc3s2)NS(=O)(=O)c2cccc3c2NCC(C)(C)C3)CC1` came in with a Ki of 56 nM.

Take `CCCCNC(=O)NCCC1CCN(C(=O)[C@H](Cc2nc3ccccc3s2)NS(=O)(=O)c2cccc3c2NCC(C)(C)C3)CC1`: the inhibition constant (Ki) was 182 nM. `CNS(=O)(=O)NCCC1CCN(C(=O)[C@H](Cc2nc3ccccc3s2)NS(=O)(=O)c2cccc3c2NCC(C)(C)C3)CC1` displayed a Ki of 119 nM. The molecule `CC1(C)CNc2c(cccc2S(=O)(=O)N[C@@H](Cc2nc3ccccc3s2)C(=O)N2CCC(CCNC(=O)OC(C)(C)C)CC2)C1` had a Ki of 52 nM. The same measure, in the same setting: as for `CC1(C)CNc2c(cccc2S(=O)(=O)N[C@@H](Cc2nc3ccccc3s2)C(=O)N2CCC(CCCl)CC2)C1`, the figure is 93 nM; as for `CC1(C)CNc2c(cccc2S(=O)(=O)N[C@@H](Cc2nc3ccccc3s2)C(=O)N2CCN(CCO)CC2)C1`, 350 nM; as for `CNC(=O)OCCC1CCN(C(=O)[C@H](Cc2nc3ccccc3s2)NS(=O)(=O)c2cccc3c2NCC(C)(C)C3)CC1`, 38 nM. `CC1(C)CNc2c(cccc2S(=O)(=O)N[C@@H](Cc2nc3ccccc3s2)C(=O)N2CCC(CCN)CC2)C1`: the inhibitory constant (Ki) was 1180 nM. Consider `CCC1CCN(C(=O)[C@H](Cc2nc3ccccc3s2)NS(=O)(=O)c2cccc3c2NCC(C)(C)C3)CC1`, for which the Ki worked out at 240 nM. On the same count and under the same terms, as for `CC1(C)CNc2c(cccc2S(=O)(=O)N[C@@H](Cc2nc3ccccc3s2)C(=O)N2CCC(CCC(=O)O)CC2)C1`, the figure is 7830 nM. Still for that read-out and setting: as for `CN(C)CCC1CCN(C(=O)[C@H](Cc2nc3ccccc3s2)NS(=O)(=O)c2cccc3c2NCC(C)(C)C3)CC1`, the figure is 38300 nM.

Tested on in another data set: not listed separately
Kind of data set: pKa was determined. In kind it is physicochemical.
As to `NCCCC[C@H](N)C(=O)O` [LYSINE], the pKa (as a rule, the negative logarithm of the acid dissociation constant) worked out at 10.2.
